Values joined by “and” are separate entries in the source; they are usually repeats but may differ in a detail not shown here. Equal entries are not always repeated.
How the values were obtained:
[1] = system: Salmonella typhimurium TA 100; assay: Ames test, mutagenicity, TA 100
Method: (§1) 2-aminoanthracene (2-AA) and 2-(2-furyl)-3-(5-nitro-2-furyl)-acrylamide (AF-2) standard mutagens were used as positive control. 2-AA was used in the presence of S9 mixture, while AF-2 was used without the S9 mixture. Deionized water (DI) and DMSO were used as negative controls for the samples and mutagens, respectively. The mixture solution was poured onto the minimal histidine agar and then incubated at 37 °C for 48 h. The revertant colonies formed on the agar plate were scored.
(§2) Three plates were investigated per dose in two independent experiments for both mutagenicity and antimutagenicity tests.

[2] = system: Salmonella typhimurium TA 98; assay: Ames test, mutagenicity, TA 98
Method: as §1, §2

[3] = system: Salmonella typhimurium TA 100; assay: Ames test, anti-mutagenicity, TA 100; format: cell-based
Method: The antimutagenicity was indicated based on percentage inhibition which was calculated as in the following equation:Antimutagenicity (%) = [1 − (b/a)] × 100
(§3) • a = revertant colony number induced via standard mutagen (positive control) • b = revertant colony number induced by standard mutagen in the presence of each sample treatment

[4] = system: Salmonella typhimurium TA 98; assay: Ames test, anti-mutagenicity, TA 98; format: cell-based
Drosophila melanogaster [5] = assay: SMART (wing spot test), anti-mutagenicity; settings: mutagen alone, 1 mM
Method: The wing spots were scored as mentioned above. The percentage of anti-mutagenicity of the nanoparticles (% inhibition) was calculated as in the following equation:Antimutagenicity (%) = [(a − b)/a] × 100
• a = number of total spots per wing of positive mutagen control group • b = number of total spots per wing of each experimental group

[6] = system: Salmonella typhimurium TA 98; assay: Ames test, anti-mutagenicity, TA 98; format: cell-based; settings: TA 98, +S9, PhIP (0.1 µg/Plate)
Method: To determine the antimutagenicity of the samples, 6-phenylimidazo [4,5-b]pyridine (PhIP) and 2-Amino-3-methylimidazo [4,5-f]quinoline (IQ) were used as standard mutagens (positive control) in the test of TA98 and TA100, respectively, in the presence of S9 mixture. The antimutagenicity was indicated based on percentage inhibition which was calculated as in the following equation:Antimutagenicity (%) = [1 − (b/a)] × 100
as §3

3T3-L1 = assay: Cytotoxic assay (MTT) in 3T3-L1; settings: at up to 16 µM
hRBCs = assay: Hemolysis assay
Method: (§4) Human blood samples of healthy subjects were obtained from Maharaj Hospital, Chiang Mai, Thailand, which were anonymized by the laboratory and kept in a heparinized tube. […] The remaining RBCs were used in a hemolysis assay. […] Consent to participate was not applicable because of anonymous data collection. All methods were carried out following relevant guidelines and regulations.
Human RBCs were collected after the separation of hPBMCs from whole blood. The 5% RBCs suspension then was mixed with several concentrations of the various forms of selenium and incubated at 37 °C for three hours. […] Hemoglobin released by damaged cells can be used as a marker of red blood cell lysis following test agent exposure and can notice as a red-color solution that can be measured for absorbance using spectrophotometry. Triton X-100 was used as a positive control.

LX-2 = assay: Cytotoxic assay (MTT) in LX-2; format: cell-based, human; settings: LX-2, MTT
Method: (§5) Cell viability (%) = (Absorbance (sample))/(Absorbance (control)) × 100 […]
(§6) Cell proliferation was determined using an MTT assay at indicated time.
(§7) The solution was gently removed, then the crystal was dissolved by dimethyl sulfoxide (DMSO). The cell viability is directly related to the […]
(§8) to a decrease in cell numbers. […]
(§9) the starting point (0 h) (B-E).

HEK-293 = assay: Cytotoxic assay (MTT) in HEK-293; format: cell-based, human; settings: HEK-293, MTT
Method: as §5, §6, §7, §8, §9

hPBMCs = assay: Cytotoxicity on hPBMCs (SRB assay); settings: at up to 16 µM of Se
Method: as §4

Caco2 = assay: Cytotoxic assay (MTT) in Caco2; format: cell-based, human
Method: as §5, §6, §7, §8, §9

MRC-5 = assay: Cytotoxic assay (MTT) in MRC-5; format: cell-based, human; settings: MRC-5, MTT
Method: as §5, §6, §7, §8, §9

Drosophila melanogaster [7] = assay: SMART (wing spot test), mutagenicity; format: in vivo; design: key to Statistical diagnosis: Small Single (m = 2) / Statistical diagnosis: Large Single (m = 5) / Statistical diagnosis: Twin (m = 5) / Statistical diagnosis: Total Spots (m = 2): + = positive; − = negative; i = inconclusive; settings: 20 mM
Method: Urethane (20 mM) was used as a mutagen (positive control) and DI was used as a negative control. The larvae were fed on each medium until pupation at 25 °C. Later, the wings of surviving flies were removed for mutant spot analysis. Approximately 40 wings in each group were scored for the presence of mutant spots, including small single spots, large single spots, and twin spots. The results were diagnosed using the estimation of spot frequencies and confidence limits for comparison with the control group, and the statistical significance was calculated as previously described by Frei and Würgler.

[8] = TA 100, +S9, IQ (0.05 µg/Plate), 3.12 µM/plate
[9] = TA 100, +S9, IQ (0.05 µg/Plate), 6.25 µM/plate
[10] = TA 100, +S9, IQ (0.05 µg/Plate), 12.5 µM/plate
[11] = TA 100, −S9, AF-2 (0.01 µg/Plate), 3.12 µM/plate
[12] = TA 100, −S9, AF-2 (0.01 µg/Plate), 6.25 µM/plate
[13] = TA 100, −S9, AF-2 (0.01 µg/Plate), 12.5 µM/plate
[14] = TA 98, −S9, AF-2 (0.1 µg/Plate), 3.12 µM/plate
[15] = TA 98, −S9, AF-2 (0.1 µg/Plate), 6.25 µM/plate
[16] = TA 98, −S9, AF-2 (0.1 µg/Plate), 12.5 µM/plate

Compound: Nc1ccc2cc3ccccc3cc2c1 [2-AA, 2-aminoanthracene]
- Number of Revertant Colonies ([1]; TA 100, +S9, 0.5 µg/plate): 590 ± 38
- Number of Revertant Colonies ([2]; TA 98, +S9, 0.5 µg/plate): 318 ± 24

Compound: NC(=O)C(=Cc1ccc([N+](=O)[O-])o1)c1ccco1 [AF-2, 2-(2-furyl)-3-(5-nitro-2-furyl)-acrylamide]
- Number of Revertant Colonies ([1]; TA 100, −S9, 0.1 µg/plate): 500 ± 73
- Number of Revertant Colonies ([3]; TA 100, −S9, standard mutagen alone, 0.01 µg/Plate): 460 ± 36 (0)
- Number of Revertant Colonies ([4]; TA 98, −S9, standard mutagen alone, 0.1 µg/Plate): 347 ± 20 (0)
- Number of Revertant Colonies ([2]; TA 98, −S9, 0.1 µg/plate): 299 ± 20

Compound: CCOS(C)(=O)=O [EMS, ethyl methanesulfonate]
- Frequency of Mutant Spots Per Individual: Large Single (>2 Cells) (Drosophila melanogaster [5]): 2.850
- Frequency of Mutant Spots Per Individual: Small Single (1–2 Cells) (Drosophila melanogaster [5]): 7.400
- Frequency of Mutant Spots Per Individual: Total Spots (Drosophila melanogaster [5]): 11.300
- Frequency of Mutant Spots Per Individual: Twin Spots (Drosophila melanogaster [5]): 1.050
- Number of Spots: Large Single (>2 Cells) (Drosophila melanogaster [5]): 114
- Number of Spots: Small Single (1–2 Cells) (Drosophila melanogaster [5]): 296
- Number of Spots: Total Spots (Drosophila melanogaster [5]): 452
- Number of Spots: Twin Spots (Drosophila melanogaster [5]): 42
- Statistical diagnosis: Large Single (>2 Cells) (Drosophila melanogaster [5]; vs deionized water): +
- Statistical diagnosis: Small Single (1–2 Cells) (Drosophila melanogaster [5]; vs deionized water): +
- Statistical diagnosis: Total Spots (Drosophila melanogaster [5]; vs deionized water): +
- Statistical diagnosis: Twin Spots (Drosophila melanogaster [5]; vs deionized water): +

Compound: Cn1c(N)nc2c3cccnc3ccc21 [IQ, 2-Amino-3-methylimidazo [4,5-f]quinoline]
- Number of Revertant Colonies ([3]; TA 100, +S9, standard mutagen alone, 0.05 µg/Plate): 490 ± 20 (0)

Compound: O=[Se]([O-])[O-].[Na+].[Na+] [Na2SeO3, sodium selenite]
- Number of Revertant Colonies ([1]; TA 100, +S9, 3.12 µM/plate): 121 ± 8
- Number of Revertant Colonies ([1]; TA 100, +S9, 6.25 µM/plate): 122 ± 11
- Number of Revertant Colonies ([1]; TA 100, +S9, 12.5 µM/plate): 126 ± 7
- Number of Revertant Colonies ([1]; TA 100, −S9, 3.12 µM/plate): 117 ± 7
- Number of Revertant Colonies ([1]; TA 100, −S9, 6.25 µM/plate): 110 ± 4
- Number of Revertant Colonies ([1]; TA 100, −S9, 12.5 µM/plate): 112 ± 7
- % mutagenic inhibition ([6]; 3.12 µM/plate): 7%
- Number of Revertant Colonies ([6]; 3.12 µM/plate): 341 ± 14
- % mutagenic inhibition ([6]; 6.25 µM/plate): 6%
- Number of Revertant Colonies ([6]; 6.25 µM/plate): 345 ± 9
- % mutagenic inhibition ([6]; 12.5 µM/plate): 10%
- Number of Revertant Colonies ([6]; 12.5 µM/plate): 332 ± 23
- toxicity to pre 3T3-L1 (3T3-L1): not toxic
- % mutagenic inhibition [3, 8]: 11%
- Number of Revertant Colonies [3, 8]: 435 ± 24
- % mutagenic inhibition [3, 9]: 18%
- Number of Revertant Colonies [3, 9]: 404 ± 20
- % mutagenic inhibition [3, 10]: 21%
- Number of Revertant Colonies [3, 10]: 385 ± 28
- inhibition of mutagen-induced revertant colonies ([3]; TA100, +S9, IQ, 6.25–12.5 µM/plate): 18–21%
- anti-mutagenic activity in the AF-2-induced mutation model ([3]; TA100, −S9): not observed
- % mutagenic inhibition [3, 11]: −17%
- Number of Revertant Colonies [3, 11]: 541 ± 82
- % mutagenic inhibition [3, 12]: −24%
- Number of Revertant Colonies [3, 12]: 570 ± 40
- % mutagenic inhibition [3, 13]: −30%
- Number of Revertant Colonies [3, 13]: 597 ± 58
- % Hemolysis (hRBCs; Se concentration 4 µM, 37 °C, three hours): 0.01 ± 0.059%
- % Hemolysis (hRBCs; Se concentration 6.25 µM, 37 °C, three hours): 0.14 ± 0.036%
- % Hemolysis (hRBCs; Se concentration 8 µM, 37 °C, three hours): 0.06 ± 0.024%
- % Hemolysis (hRBCs; Se concentration 50 µM, 37 °C, three hours): 0.08 ± 0.074%
- effect on cell number (cell proliferation, Supplementary Figure S5) (LX-2; 48 h vs starting point 0 h): killing effect
- IC50 (LX-2; selenium concentration): 11.2 µM
- effect on cell number (cell proliferation, Supplementary Figure S5) (HEK-293; 48 h vs starting point 0 h): killing effect
- IC50 (HEK-293; selenium concentration): 9 µM
- cell viability of hPBMCs (hPBMCs): not harmful
- anti-mutagenic activity in the AF-2-induced mutation model ([4]; TA98, −S9): not observed
- % mutagenic inhibition [4, 14]: 9%
- Number of Revertant Colonies [4, 14]: 315 ± 6
- % mutagenic inhibition [4, 15]: 4%
- Number of Revertant Colonies [4, 15]: 335 ± 24
- % mutagenic inhibition [4, 16]: 5%
- Number of Revertant Colonies [4, 16]: 329 ± 14
- Number of Revertant Colonies ([2]; TA 98, +S9, 3.12 µM/plate): 25 ± 5
- Number of Revertant Colonies ([2]; TA 98, +S9, 6.25 µM/plate): 26 ± 4
- Number of Revertant Colonies ([2]; TA 98, +S9, 12.5 µM/plate): 27 ± 5
- Number of Revertant Colonies ([2]; TA 98, −S9, 3.12 µM/plate): 22 ± 2
- Number of Revertant Colonies ([2]; TA 98, −S9, 6.25 µM/plate): 21 ± 1
- Number of Revertant Colonies ([2]; TA 98, −S9, 12.5 µM/plate): 23 ± 3
- mutagenicity in Ames test ([2]; TA98 and TA 100, presence or absence of S9 homogenate): neither pro-mutagen nor mutagen
- effect on cell number (cell proliferation, Supplementary Figure S5) (Caco2; 48 h vs starting point 0 h): killing effect
- IC50 (Caco2; selenium concentration): 4 µM and ~4 µM
- effect on cell number (cell proliferation, Supplementary Figure S5) (MRC-5; 48 h vs starting point 0 h): killing effect
- IC50 (MRC-5; selenium concentration): 10.5 µM

Compound: CCOC(N)=O [Urethane, ethyl carbamate]
- Frequency of Mutant Spots Per Individual: Large Single (m = 5) (Drosophila melanogaster [7]; 40 wings): 10.50
- Frequency of Mutant Spots Per Individual: Small Single (m = 2) (Drosophila melanogaster [7]; 40 wings): 24.75
- Frequency of Mutant Spots Per Individual: Total Spots (m = 2) (Drosophila melanogaster [7]; 40 wings): 36.25
- Frequency of Mutant Spots Per Individual: Twin (m = 5) (Drosophila melanogaster [7]; 40 wings): 1.0
- Number of Spots: Large Single (m = 5) (Drosophila melanogaster [7]; 40 wings): 420
- Number of Spots: Small Single (m = 2) (Drosophila melanogaster [7]; 40 wings): 990
- Number of Spots: Total Spots (m = 2) (Drosophila melanogaster [7]; 40 wings): 1450
- Number of Spots: Twin (m = 5) (Drosophila melanogaster [7]; 40 wings): 40
- Statistical diagnosis: Large Single (m = 5) (Drosophila melanogaster [7]; vs DI): +
- Statistical diagnosis: Small Single (m = 2) (Drosophila melanogaster [7]; vs DI): +
- Statistical diagnosis: Total Spots (m = 2) (Drosophila melanogaster [7]; vs DI): +
- Statistical diagnosis: Twin (m = 5) (Drosophila melanogaster [7]; vs DI): +

Compound: Triton X-100
- % Hemolysis (hRBCs; positive control, run beside each Se form): 98 ± 0.052% and 100 ± 0.23%

Source: article PMC10609996, “The Toxicological Assessment of Anoectochilus burmannicus Ethanolic-Extract-Synthesized Selenium Nanoparticles Using Cell Culture, Bacteria, and Drosophila melanogaster as Suitable Models” (Nanomaterials, 2023)
